How the values were obtained:
MALME-3M = test: NCI60 one-dose screen (10 μM), Melanoma; assay type: cell-based; settings: Homo sapiens; 10 μM; MALME-3M, Melanoma; read-out: Growth percent rate
K-562 = test: NCI60 one-dose screen (10 μM), Leukemia; assay type: cell-based; settings: Homo sapiens, K562; 10 μM; K-562, Leukemia; read-out: Growth percent rate
CCRF-CEM = test: NCI60 one-dose screen (10 μM), Leukemia; assay type: cell-based; settings: Homo sapiens, 10 μM, Leukemia, read-out: Growth percent rate
NCI-H522 = test: NCI60 one-dose screen (10 μM), Non-small Cell Lung Cancer; assay type: cell-based; settings: Homo sapiens; 10 μM; NCI-H522, Non-small Cell Lung Cancer; read-out: Growth percent rate
HCT-15 = test: NCI60 one-dose screen (10 μM), Colon Cancer; assay type: cell-based; settings: Homo sapiens; 10 μM; HCT-15, Colon Cancer; read-out: Growth percent rate
UACC-257 = test: NCI60 one-dose screen (10 μM), Melanoma; assay type: cell-based; settings: Homo sapiens; 10 μM; UACC-257, Melanoma; read-out: Growth percent rate
786–0 = test: NCI60 one-dose screen (10 μM), Renal Cancer; assay type: cell-based; settings: Homo sapiens; 10 μM; 786-0, Renal Cancer; read-out: Growth percent rate
COLO 205 = test: NCI60 one-dose screen (10 μM), Colon Cancer; assay type: cell-based, human; settings: Homo sapiens; 10 μM; COLO 205, Colon Cancer; read-out: Growth percent rate
SNB-75 = test: NCI60 one-dose screen (10 μM), CNS Cancer; assay type: cell-based, human; settings: for activity at 10 µM: Homo sapiens, SNB-75, CNS Cancer, read-out: Growth percent rate
SK-MEL-28 = test: NCI60 one-dose screen (10 μM), Melanoma; assay type: cell-based; settings: Homo sapiens; 10 μM; SK-MEL-28, Melanoma; read-out: Growth percent rate
MOLT-4 = test: NCI60 one-dose screen (10 μM), Leukemia; assay type: cell-based, human; settings: Homo sapiens; 10 μM; MOLT-4, Leukemia; read-out: Growth percent rate
TK-10 = test: NCI60 one-dose screen (10 μM), Renal Cancer; assay type: cell-based; settings: Homo sapiens; 10 μM; TK-10, Renal Cancer; read-out: Growth percent rate
A498 = test: NCI60 one-dose screen (10 μM), Renal Cancer; assay type: cell-based; settings: Homo sapiens; 10 μM; A498, Renal Cancer; read-out: Growth percent rate
SN12C = test: NCI60 one-dose screen (10 μM), Renal Cancer; assay type: cell-based; settings: Homo sapiens, 10 μM, Renal Cancer, read-out: Growth percent rate
EKVX = test: NCI60 one-dose screen (10 μM), Non-small Cell Lung Cancer; assay type: cell-based; settings: Homo sapiens, 10 μM, Non-small Cell Lung Cancer, read-out: Growth percent rate
MDA-MB-435 = test: NCI60 one-dose screen (10 μM), Melanoma; assay type: cell-based; settings: Homo sapiens; 10 μM; MDA-MB-435, Melanoma; read-out: Growth percent rate
A549/ATCC = test: NCI60 one-dose screen (10 μM), Non-small Cell Lung Cancer; assay type: cell-based; settings: Homo sapiens; 10 μM; A549/ATCC, Non-small Cell Lung Cancer; read-out: Growth percent rate
HS 578T = test: NCI60 one-dose screen (10 μM), Breast Cancer; assay type: cell-based; settings: Homo sapiens; 10 μM; HS 578T, Breast Cancer; read-out: Growth percent rate
SF-295 = test: NCI60 one-dose screen (10 μM), CNS Cancer; assay type: cell-based; settings: Homo sapiens; 10 μM; SF-295, CNS Cancer; read-out: Growth percent rate
ACHN = test: NCI60 one-dose screen (10 μM), Renal Cancer; assay type: cell-based; settings: Homo sapiens, 10 μM, Renal Cancer, read-out: Growth percent rate
MCF7 = test: NCI60 one-dose screen (10 μM), Breast Cancer; assay type: cell-based; settings: Homo sapiens; 10 μM; MCF7, Breast Cancer; read-out: Growth percent rate
KM12 = test: NCI60 one-dose screen (10 μM), Colon Cancer; assay type: cell-based, human; settings: for activity at 10 µM: Homo sapiens, KM12, Colon Cancer, read-out: Growth percent rate
SW-620 = test: NCI60 one-dose screen (10 μM), Colon Cancer; assay type: cell-based; settings: Homo sapiens; 10 μM; SW-620, Colon Cancer; read-out: Growth percent rate
SK-MEL-5 = test: NCI60 one-dose screen (10 μM), Melanoma; assay type: cell-based, human; settings: for activity at 10 µM: Homo sapiens, SK-MEL-5, Melanoma, read-out: Growth percent rate
U251 = test: NCI60 one-dose screen (10 μM), CNS Cancer; assay type: cell-based; settings: Homo sapiens, U-251; 10 μM; U251, CNS Cancer; read-out: Growth percent rate
RPMI-8226 = test: NCI60 one-dose screen (10 μM), Leukemia; assay type: cell-based; settings: Homo sapiens; 10 μM; RPMI-8226, Leukemia; read-out: Growth percent rate
NCI-H23 = test: NCI60 one-dose screen (10 μM), Non-small Cell Lung Cancer; assay type: cell-based; settings: Homo sapiens; 10 μM; NCI-H23, Non-small Cell Lung Cancer; read-out: Growth percent rate
HCT-116 = test: NCI60 one-dose screen (10 μM), Colon Cancer; assay type: cell-based; settings: Homo sapiens; 10 μM; HCT-116, Colon Cancer; read-out: Growth percent rate
HT29 = test: NCI60 one-dose screen (10 μM), Colon Cancer; assay type: cell-based; settings: Homo sapiens, HT-29; 10 μM; HT29, Colon Cancer; read-out: Growth percent rate
OVCAR-8 = test: NCI60 one-dose screen (10 μM), Ovarian Cancer; assay type: cell-based; settings: Homo sapiens; 10 μM; OVCAR-8, Ovarian Cancer; read-out: Growth percent rate
HOP-62 = test: NCI60 one-dose screen (10 μM), Non-small Cell Lung Cancer; assay type: cell-based; settings: Homo sapiens; 10 μM; HOP-62, Non-small Cell Lung Cancer; read-out: Growth percent rate
OVCAR-3 = test: NCI60 one-dose screen (10 μM), Ovarian Cancer; assay type: cell-based; settings: Homo sapiens; 10 μM; OVCAR-3, Ovarian Cancer; read-out: Growth percent rate
NCI-H460 = test: NCI60 one-dose screen (10 μM), Non-small Cell Lung Cancer; assay type: cell-based; settings: Homo sapiens; 10 μM; NCI-H460, Non-small Cell Lung Cancer; read-out: Growth percent rate
SNB-19 = test: NCI60 one-dose screen (10 μM), CNS Cancer; assay type: cell-based; settings: Homo sapiens; 10 μM; SNB-19, CNS Cancer; read-out: Growth percent rate
NCI-H322M = test: NCI60 one-dose screen (10 μM), Non-small Cell Lung Cancer; assay type: cell-based; settings: Homo sapiens, 10 μM, Non-small Cell Lung Cancer, read-out: Growth percent rate
IGROV1 = test: NCI60 one-dose screen (10 μM), Ovarian Cancer; assay type: cell-based; settings: Homo sapiens, IGROV-1; 10 μM; IGROV1, Ovarian Cancer; read-out: Growth percent rate
SF-539 = test: NCI60 one-dose screen (10 μM), CNS Cancer; assay type: cell-based, human; settings: for activity at 10 µM: Homo sapiens, SF-539, CNS Cancer, read-out: Growth percent rate
CAKI-1 = test: NCI60 one-dose screen (10 μM), Renal Cancer; assay type: cell-based; settings: Homo sapiens; 10 μM; CAKI-1, Renal Cancer; read-out: Growth percent rate
HCC-2998 = test: NCI60 one-dose screen (10 μM), Colon Cancer; assay type: cell-based; settings: Homo sapiens; 10 μM; HCC-2998, Colon Cancer; read-out: Growth percent rate
M14 = test: NCI60 one-dose screen (10 μM), Melanoma; assay type: cell-based; settings: Homo sapiens; 10 μM; M14, Melanoma; read-out: Growth percent rate
HL-60(TB) = test: NCI60 one-dose screen (10 μM), Leukemia; assay type: cell-based; settings: Homo sapiens; 10 μM; HL-60(TB), Leukemia; read-out: Growth percent rate
SK-MEL-2 = test: NCI60 one-dose screen (10 μM), Melanoma; assay type: cell-based; settings: Homo sapiens; 10 μM; SK-MEL-2, Melanoma; read-out: Growth percent rate

Compound: CCC12C=CCN3CCC4(c5cc(NC(=O)CN6CCN(c7ccc(C(F)(F)F)cc7)CC6)c(OC)cc5N(C)C4C(O)(C(=O)OC)C1OC(C)=O)C32 (stereo not shown) [Compound 17]
- activity at 10 µM (MALME-3M): -89.5%
- activity at 10 µM (K-562): 11.4%
- activity at 10 µM (CCRF-CEM): -7.07%
- activity at 10 µM (NCI-H522): -24.4%
- activity at 10 µM (HCT-15): -56.5%
- activity at 10 µM (UACC-257): -65.3%
- activity at 10 µM (786–0): 24.8%
- activity at 10 µM (COLO 205): -74.5%
- growth percent rate (SNB-75; 10 μM one-dose, SNB-75 CNS cancer, negative = lethality): < −80%
- activity at 10 µM (SNB-75): -87.6%
- activity at 10 µM (SK-MEL-28): -67.6%
- activity at 10 µM (MOLT-4): 8.66%
- activity at 10 µM (TK-10): 33.4%
- activity at 10 µM (A498): -9.05%
- activity at 10 µM (SN12C): -17%
- activity at 10 µM (EKVX): 21.3%
- activity at 10 µM (MDA-MB-435): -79.8%
- activity at 10 µM (A549/ATCC): 20.3%
- activity at 10 µM (HS 578T): -3.36%
- activity at 10 µM (SF-295): -70.2%
- activity at 10 µM (ACHN): 3.15%
- activity at 10 µM (MCF7): 0.95%
- growth percent rate (KM12; 10 μM one-dose, KM12 colon cancer, negative = lethality): −84.40%
- activity at 10 µM (KM12): -84.4%
- activity at 10 µM (SW-620): 1.45%
- growth percent rate (SK-MEL-5; 10 μM one-dose, SK-MEL-5 melanoma, negative = lethality): −98.17%
- activity at 10 µM (SK-MEL-5): -98.2%
- activity at 10 µM (U251): 7.24%
- activity at 10 µM (RPMI-8226): -14.1%
- activity at 10 µM (NCI-H23): 15.2%
- activity at 10 µM (HCT-116): 0.31%
- activity at 10 µM (HT29): -68.8%
- activity at 10 µM (OVCAR-8): 26.3%
- activity at 10 µM (HOP-62): -38.8%
- activity at 10 µM (OVCAR-3): -48%
- activity at 10 µM (NCI-H460): 9.27%
- activity at 10 µM (SNB-19): 18.4%
- activity at 10 µM (NCI-H322M): 39.1%
- activity at 10 µM (IGROV1): 12.7%
- growth percent rate (SF-539; 10 μM one-dose, SF-539 CNS cancer, negative = lethality): < −80%
- activity at 10 µM (SF-539): -83.4%
- activity at 10 µM (CAKI-1): 10.8%
- activity at 10 µM (HCC-2998): -69.9%
- activity at 10 µM (M14): -31.1%
- activity at 10 µM (HL-60(TB)): 1.98%
- activity at 10 µM (SK-MEL-2): -66.2%

Compound: CCC12C=CCN3CCC4(c5ccc(OC)cc5N(C)C4C(O)(C(=O)OC)C1OC(=O)CCC(=O)O)C32 (stereo not shown) [Compound 15, 17-(O-3-carboxypropanoyl)vindoline]
- activity at 10 µM (MALME-3M): 90.3%
- activity at 10 µM (K-562): 90.5%
- activity at 10 µM (CCRF-CEM): 105%
- activity at 10 µM (NCI-H522): 84.2%
- activity at 10 µM (HCT-15): 98.4%
- activity at 10 µM (UACC-257): 91.5%
- activity at 10 µM (786–0): 98.1%
- activity at 10 µM (COLO 205): 93.6%
- activity at 10 µM (SNB-75): 53.4%
- activity at 10 µM (SK-MEL-28): 86.7%
- activity at 10 µM (MOLT-4): 106%
- activity at 10 µM (TK-10): 90.8%
- activity at 10 µM (A498): 90.6%
- activity at 10 µM (SN12C): 92.9%
- activity at 10 µM (EKVX): 87.4%
- activity at 10 µM (MDA-MB-435): 110%
- activity at 10 µM (A549/ATCC): 94.3%
- activity at 10 µM (HS 578T): 69.3%
- activity at 10 µM (SF-295): 113%
- activity at 10 µM (ACHN): 102%
- activity at 10 µM (MCF7): 68.2%
- activity at 10 µM (KM12): 82.8%
- activity at 10 µM (SW-620): 102%
- activity at 10 µM (SK-MEL-5): 96.8%
- activity at 10 µM (U251): 105%
- activity at 10 µM (RPMI-8226): 84.2%
- activity at 10 µM (NCI-H23): 92.5%
- activity at 10 µM (HCT-116): 98.6%
- activity at 10 µM (HT29): 89.9%
- activity at 10 µM (OVCAR-8): 91.8%
- activity at 10 µM (HOP-62): 102%
- activity at 10 µM (OVCAR-3): 74.9%
- activity at 10 µM (NCI-H460): 97.4%
- activity at 10 µM (SNB-19): 94.9%
- activity at 10 µM (NCI-H322M): 73.9%
- activity at 10 µM (IGROV1): 90%
- activity at 10 µM (SF-539): 92.9%
- activity at 10 µM (CAKI-1): 95.5%
- activity at 10 µM (HCC-2998): 71%
- activity at 10 µM (M14): 96.5%
- activity at 10 µM (HL-60(TB)): 114%
- activity at 10 µM (SK-MEL-2): 100%
